Columns and labels:
[1] = Content during storage of the preparation of the present invention; type: physicochemical; settings: storage at 40° C./4 months (equivalent to 25° C./2 years)
Source text: In the preparation of the present invention, the pH value of the aqueous preparation is most desirably 6 to 7, the antioxidant is a combination of ascorbic acid with sodium pyrosulfite, and the concentration of the antioxidant is 0.1 to 0.3 w/v %. However, in the case where the concentration of sodium pyrosulfite is not less than 0.2 w/v %, precipitants form in the aqueous preparation. The preparation of the present invention is desirably included in an inner container, e.g., a syringe in a double package form which comprises an inner container and an outer bag, where a deoxidant (oxygen absorber) is placed between the inner container and the outer bag. The preparation of the present invention can be used as a pharmaceutical. The content of calcium salt of 5-formyl-(6S)-tetrahydrofolic acid (i.e. calcium levofolinate) is 90% or more during storage at 40° C./4 months (this condition is equivalent to 25° C./2 years)

[2] = Stability test at 60° C., effect of pH value with addition of ascorbic acid (Example 2), HPLC content; type: physicochemical
Experimental: For the aqueous preparations obtained in (1) to (3) above, tests evaluating stability at 60° C./3 weeks were performed. The calcium levofolinate content remaining in the aqueous solution was measured using high performance liquid chromatography under the following conditions (the same were employed in the following experiments) 2 ml each of the test preparations were weighed, and 10 ml of the internal standard solution described below (the same was employed in the following experiments) were added thereto. Subsequently, water was added to adjust the total volume of the solution to 50 ml, thereby to prepare a test solution. Meanwhile, 62.5 mg of calcium levofolinate were dissolved in water so as to prepare a 25 ml solution. Then, to 10 ml of the resultant solution were added 10 ml of the internal standard solution, and the total volume of the solution was adjusted to 50 ml by adding water, thereby to prepare a standard solution. For 20 μl of the standard solution and the test solution, the content of calcium levofolinate was measured by the liquid chromatography method under the following conditions.
1) Measurement Conditions • Detector: Ultraviolet absorptiometer (Measurement wavelength: 254 nm) • Column: A stainless tube having an internal diameter of 4.0 mm and a length of 15 cm was filled with 5 μm of octadecylsilylated silica gel for liquid chromatography. • Column temperature: A constant temperature near 45° C. • Mobile phase: The pH value of a mixed test solution containing 0.008 mol/L of disodium hydrogen phosphate solution/methanol/40% aqueous tetrabutylammonium hydroxide solution (385:110:1.3 (volume ratio)) was adjusted to 7.5 by adding phosphoric acid. • Flow rate: The flow rate was regulated so that the retention time of calcium levofolinate became about 10 minutes. • Internal standard solution: A solution prepared by adding water to 0.04 g of methyl parahydroxybenzoate so that the whole amount of solution is 100 ml.
About 80 ml of water for injection were added to a beaker (volume: 200 ml). Then 0.56 g of sodium chloride, 0.3 g of tromethamine, and 0.5 g of ascorbic acid were added to it with bubbling of nitrogen gas, and the components were dissolved with stirring. Subsequently, to the resultant solution were added 1.375 g of calcium levofolinate (1.1 g, in terms of 5-formyl-(6S)-tetrahydrofolic acid), and the components were dissolved with stirring under heating to 45 to 50° C. Thereafter, the pH value of the solution was adjusted to 5.0 by adding 5% hydrochloric acid solution dropwise. A similar procedure to the above, except using 1% aqueous sodium hydroxide solution in place of 5% hydrochloric acid solution, was performed to produce solutions, each having a regulated pH value of 6.0, 7.0, 8.0, or 9.0. Water for injection was further added to each solution to adjust the total volume of the solution to 100 ml. Subsequently, the bubbling of nitrogen gas was stopped, and each solution was filtered with a filtration filter, thereby to yield a solution for injection. Subsequently, each of five 5 ml-glass ampules the inside space of which had been substituted by nitrogen gas, was filled with 5 ml of the resultant solution for injection, and was sealed by heating.
For each aqueous preparation obtained as above, a stability test at 60° C. was performed by measuring the remaining calcium levofolinate content by the high performance liquid chromatography method.

content of calcium levofolinate during storage [1]: ≥ 90%
remaining calcium levofolinate content compared with the initial value (100) ([2]; pH value 5.0, 60° C., 1 week): 91.5
remaining calcium levofolinate content compared with the initial value (100) ([2]; pH value 5.0, 60° C., 2 weeks): 87.5
remaining calcium levofolinate content compared with the initial value (100) ([2]; pH value 5.0, 60° C., 3 weeks): 86.0
calcium levofolinate content, Initial value (100) ([2]; pH value 5.0, Initial value): 100
remaining calcium levofolinate content compared with the initial value (100) ([2]; pH value 6.0, 60° C., 1 week): 95.8
remaining calcium levofolinate content compared with the initial value (100) ([2]; pH value 6.0, 60° C., 2 weeks): 94.1
remaining calcium levofolinate content compared with the initial value (100) ([2]; pH value 6.0, 60° C., 3 weeks): 92.8
calcium levofolinate content, Initial value (100) ([2]; pH value 6.0, Initial value): 100
remaining calcium levofolinate content compared with the initial value (100) ([2]; pH value 7.0, 60° C., 1 week): 96.3
remaining calcium levofolinate content compared with the initial value (100) ([2]; pH value 7.0, 60° C., 2 weeks): 93.4
remaining calcium levofolinate content compared with the initial value (100) ([2]; pH value 7.0, 60° C., 3 weeks): 92.5
calcium levofolinate content, Initial value (100) ([2]; pH value 7.0, Initial value): 100
remaining calcium levofolinate content compared with the initial value (100) ([2]; pH value 8.0, 60° C., 1 week): 94.4
remaining calcium levofolinate content compared with the initial value (100) ([2]; pH value 8.0, 60° C., 2 weeks): 89.2
remaining calcium levofolinate content compared with the initial value (100) ([2]; pH value 8.0, 60° C., 3 weeks): 87.0
calcium levofolinate content, Initial value (100) ([2]; pH value 8.0, Initial value): 100
remaining calcium levofolinate content compared with the initial value (100) ([2]; pH value 9.0, 60° C., 1 week): 95.7
remaining calcium levofolinate content compared with the initial value (100) ([2]; pH value 9.0, 60° C., 2 weeks): 89.7
remaining calcium levofolinate content compared with the initial value (100) ([2]; pH value 9.0, 60° C., 3 weeks): 85.3
calcium levofolinate content, Initial value (100) ([2]; pH value 9.0, Initial value): 100
SMILES: Nc1nc(=O)c2c([nH]1)NC[C@H](CNc1ccc(C(=O)N[C@@H](CCC(=O)O)C(=O)O)cc1)N2C=O [calcium levofolinate, (6S)-N-[4-[[(2-amino-5-formyl-1,4,5,6,7,8-hexahydro-4-oxo-6-pteridinyl)methyl]amino]benzoyl]-L-glutamic acid]

— patent US20060058312A1, “Stabilized aqueous preparation for injection” (priority 2004, published 2006)
